Reference: article PMC10060569 (Frontiers in Pharmacology, 2023)

Molecular target: T1, hP2X7R (Homo sapiens, UniProt Q99572)
T1 construct: expressed in transfected cells; host or cells: Xenopus laevis oocytes (cRNA injection)
T1 sequence (Q99572 1-595): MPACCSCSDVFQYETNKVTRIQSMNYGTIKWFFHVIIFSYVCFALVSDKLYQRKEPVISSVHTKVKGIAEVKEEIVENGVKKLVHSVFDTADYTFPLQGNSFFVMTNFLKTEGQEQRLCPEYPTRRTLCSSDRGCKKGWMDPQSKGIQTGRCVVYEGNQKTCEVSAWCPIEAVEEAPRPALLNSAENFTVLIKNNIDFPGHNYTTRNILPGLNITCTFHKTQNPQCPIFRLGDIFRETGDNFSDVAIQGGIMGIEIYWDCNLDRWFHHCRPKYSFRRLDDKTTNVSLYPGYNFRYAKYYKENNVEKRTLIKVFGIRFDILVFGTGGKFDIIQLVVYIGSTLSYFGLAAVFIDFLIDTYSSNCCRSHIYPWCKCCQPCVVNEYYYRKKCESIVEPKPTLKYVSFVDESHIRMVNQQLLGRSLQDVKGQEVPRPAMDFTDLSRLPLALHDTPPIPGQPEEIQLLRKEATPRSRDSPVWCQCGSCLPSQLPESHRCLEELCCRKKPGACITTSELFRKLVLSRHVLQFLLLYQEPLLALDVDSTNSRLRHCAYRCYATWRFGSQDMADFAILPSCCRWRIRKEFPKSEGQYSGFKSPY
Experiment: TEVC of ATP4--induced currents, hP2X7R in X. laevis oocytes (modified steady-state protocol)
Assay type: cell-based
Settings: for IC50: estimated from few tested concentrations
Description: Ion currents mediated by P2X receptors were evoked by the indicated concentration of ATP or α,β-meATP and were recorded 1 or 2 days after cRNA injection at ambient temperature at a holding potential of −60 mV by two-electrode voltage clamp (TEVC) as previously described ([Hausmann et al., 2006]). Calcium-free ORi^− solution (90 mM NaCl, 1 mM KCl, 2 mM MgCl2, 10 mM HEPES, pH 7.4) was used to avoid bias due to calcium-activated chloride channels (CaCC) endogenously expressed in X. laevis oocytes ([Miledi, 1982]; [Methfessel et al., 1986]). For recordings of wt-hP2X7R, the composition of the ORi^− solution was modified according to protocols described previously and contained 100 mM NaCl, 2.5 mM KCl, 1 mM MgCl2, 5 mM HEPES, pH 7.4 ([Klapperstück et al., 2000]). The oocytes were continuously superfused with ORi^− by gravity flow (5–10 ml/min). The agonists ATP or α,β-meATP and the investigated NSAIDs were diluted in ORi^− on the day of the recording. The following agonist concentrations were used for the different P2X subtypes: 1 μM ATP (hP2X1R mutant, hP2X3R, rP2X3R, S^15V-hP2X3R, and S^15V-rP2X3R); 10 μM ATP (hP2X2R and hP2X4R); 300 μM free ATP^4- (hP2X7R); and 1 μM α,β-meATP (hP2X2/3R). A peak current protocol (Supplementary Figure S1) was used to analyze fast- and intermediate desensitizing P2XR subtypes (P2X1R, P2X3R, and S^15V-P2X3R), and a steady-state protocol (Supplementary Figure S2) was used for slowly or partially desensitizing P2X subtypes (P2X2R, P2X2/3R, and P2X4R). For recordings of P2X7R, a modified steady-state protocol was used ([Hausmann et al., 2006]). The application of different bath solutions was controlled by computer-operated magnetic valves controlled by the CellWorks E 5.5.1 software (npi electronic, Tamm, Germany).
In the case of hP2X7R, the control current in the absence of the antagonist had to be extrapolated (Supplementary Figure S4 and Supplementary Figure S5) presuming a linear increase in permeability during continuous ATP application ([North, 2002]) since the permeability of the receptor is affected by the antagonist.
For recordings of P2X7R, most scientists use divalent-free solutions such as ORi supplemented with 100 µM flufenamic acid (FFA) as an unselective ion channel blocker to inhibit non-specific chloride conductance in the absence of divalent ions ([Weber et al., 1995]; [Hülsmann et al., 2003]). However, since FFA is one of the investigated NSAIDs, this supplement was not reasonable. Therefore, the composition of the ORi-solution was modified as follows: 100 mM NaCl, 2.5 mM KCl, 1 mM MgCl2, 5 mM HEPES, pH 7.4, and according to former protocols ([Klapperstück et al., 2000]), a free ATP^4−concentration of 300 µM was adjusted.

reversibility of the effect on hP2X7R-mediated current responses (slope of current before and after FFA application) | SMILES | IC50 (300 µM free ATP4-) [µM] | reduction of ATP4--induced current amplitude by 300 µM diclofenac (300 µM diclofenac, 300 µM free ATP4-)
potentially irreversible | O=C(O)c1ccccc1Nc1cccc(C(F)(F)F)c1 [Flufenamic acid, flufenamic acid] | ~900 | –
– | O=C(O)Cc1ccccc1Nc1c(Cl)cccc1Cl [Diclofenac, diclofenac] | > 300 | approximately 33%
